Measurements published in publication PMC3057119 (Bioorganic & medicinal chemistry letters, 2011).

Test system: p53-dependent luciferase reporter in U2OS cells
Assay: p53-dependent luciferase reporter activation
Assay type: cell-based
Settings: U2OS cells stably expressing p53-dependent luciferase reporter, 5 μM

Structure (SMILES): COc1ccc(C2=N[C@@H](c3ccc(Cl)cc3)[C@@H](c3ccc(Cl)cc3)N2C(=O)N2CCNC(=O)C2)c(OC(C)C)c1 [Nutlin-3, nutlin-3]
- increase in luciferase activation: 4 fold
